Measurements taken from patent US10071099B2, “Medicament for suppressing malignant tumor metastasis” (NATIONAL CEREBRAL AND CARDIOVASCULAR CENTER, priority 2014, dated 2018).

How the values were obtained:
[1] = system: mouse melanoma B16-F10; assay: Blood-borne lung metastasis model, mouse melanoma tail vein injection (CDDP); format: in vivo
Experimental: Lung Metastasis Suppressing Effect of Medicament in Blood-Borne Metastasis Model Established by Injection of Mouse Melanoma to Mouse Tail Vein (CDDP)
Eight-week-old male C57BL6 mice (purchased from Japan SLC, Inc.) were used. Mouse melanoma B16-F10 was purchased from ATCC, and cultured in Dulbecco's Modified Eagle Medium (DMEM) (Life Technologies Corp.) containing 10% fetal calf serum (FCS) under 5% CO2 at 37° C. The cells in a semiconfluent state were treated with EDTA-trypsin (a 0.01 to 0.125% solution), centrifuged, and then suspended in serum free DMEM so as to be 3×10^6 cells/mL. The melanoma cell suspension (100 μL/mouse, 3×10^5 cells) was injected to the tail vein of the mice.
As pretreatment, 2.5 mg/kg of cisplatin (CDDP) was injected to the tail vein of the mice 2 days before the injection of the melanoma cells into the tail vein.
As an angiotensin type 2 receptor agonist, Compound A was used.
To the angiotensin type 2 receptor agonist group, a 0.5% carboxymethylcellulose aqueous solution prepared so as to contain 30 mg/kg of Compound A was orally given from 4 days before the start of the CDDP administration to the end of the experiment (14 days after the injection of melanoma cells) in a continuous manner.
To the control group, CDDP was not injected, and only a 0.5% carboxymethylcellulose aqueous solution not containing the agent was orally given for the experiment.
In addition, for the purpose of comparison, an experiment in which CDDP was not injected and Compound A was orally administered and an experiment in which CDDP was injected and the 0.5% carboxymethylcellulose aqueous solution not containing the agent (Compound A) was orally given were performed.
The number of animals in each group was n=5.
The lung metastasis of the tumor cells 14 days after the tumor cell injection was observed. […]

[2] = system: mouse melanoma B16-F10; assay: Blood-borne lung metastasis model, mouse melanoma tail vein injection (LPS); format: in vivo; conditions: for LPS-induced lung metastasis of tumor cells (nodules): 30 mg/kg-day oral from 4 days before LPS, LPS 1 mg/kg tail vein 4 to 5 hours before B16-F10 injection, 14 days after tumor cell injection, C57BL6 mice
Experimental: Lung Metastasis Suppressing Effect of Medicament in Blood-Borne Metastasis Model Established by Injection of Mouse Melanoma to Mouse Tail Vein (LPS)
Eight-week-old male C57BL6 mice (purchased from Japan SLC, Inc.) were used. Lipopolysaccharide (LPS) in an amount of 1 mg/kg was injected to the tail vein of each mouse, and mouse melanoma B16-F10 was injected to the tail vein 4 to 5 hours later. At this time, mouse melanoma was injected into the tail vein on the different side from the tail vein to which LPS was injected. Mouse melanoma B16-F10 was purchased from ATCC, and cultured in DMEM (Life Technologies Corp.) containing 10% FCS under 5% CO2 at 37° C. The cells in a semiconfluent state were treated with EDTA-trypsin (a 0.01 to 0.125% solution) and then centrifuged. As an angiotensin type 2 receptor agonist, Compounds A to E were used. The cells were suspended in serum free DMEM so as to be 3×10^6 cells/mL for Compound A administration group, and 2×10^6 cells/mL for Compound B to E administration groups. The melanoma cell suspension ([…]) at a density of 3×10^5 cells for Compound A administration group or at a density of […] for Compound B to E administration groups was injected to the tail vein of the mice.
To the angiotensin type 2 receptor agonist group, a 0.5% carboxymethylcellulose aqueous solution (0.2 mg/mL) prepared so as to contain 30 mg/kg-day of the agent (each of Compounds A to E) was orally given from 4 days before the start of the LPS administration to the end of the experiment (14 days after the injection of melanoma cells) in a continuous manner. To the control group, LPS was not injected, and only a 0.5% carboxymethylcellulose aqueous solution not containing the agent (any of Compounds A to E) was orally given for the experiment.
In addition, for the purpose of comparison, an experiment in which LPS was not injected and Compound A was orally administered and an experiment in which LPS was injected and the 0.5% carboxymethylcellulose aqueous solution not containing the agent (any of Compounds A to E) was orally given were performed. […]

Row | SMILES | CDDP-induced exacerbation of the lung metastasis of tumor cells (nodules) ([1]; 30 mg/kg oral from 4 days before CDDP, CDDP 2.5 mg/kg tail vein 2 days before B16-F10 injection, 14 days after tumor cell injection, C57BL6 mice) | lung metastasis of tumor cells without CDDP administration ([1]; 30 mg/kg oral, no CDDP, 14 days after B16-F10 tail vein injection, C57BL6 mice) | LPS-induced lung metastasis of tumor cells (nodules) [2] | lung metastasis of tumor cells without LPS administration ([2]; 30 mg/kg-day oral, no LPS, 14 days after B16-F10 tail vein injection) | effect of cisplatin (CDDP) administration on lung metastasis of tumor cells ([1]; CDDP 2.5 mg/kg tail vein 2 days before B16-F10 injection, 14 days after tumor cell injection)
1 | CCN(CC)C(=O)[C@H](Cc1ccc(NC(=O)c2ccccc2)cc1)C(=O)NS(=O)(=O)c1ccc2ccccc2c1 [Compound A, (2S)-2-[4-(benzoylamino)benzyl]-N,N-diethyl-N′-(2-naphthylsulfonyl)malonamide] | significantly suppressed the CDDP-induced exacerbation of the lung metastasis | capable of suppressing the lung metastasis of tumor cells | significantly suppressed the lung metastasis of tumor cells | suppresses the lung metastasis of tumor cells | –
2 | CCN(CC)C(=O)[C@H](Cc1ccc(NC(=O)c2ccc(Cl)cc2N)cc1)C(=O)NS(=O)(=O)c1ccc2ccccc2c1 [Compound E, (2S)-2-{4-[(2-amino-4-chlorobenzoyl)amino]benzyl}-N,N-diethyl-N′-(2-naphthylsulfonyl)malonamide] | – | – | significantly suppressed the lung metastasis of tumor cells | – | –
3 | N.N.[Cl][Pt][Cl] [cisplatin (CDDP), cisplatin, reference compound] | – | – | – | – | augmented the lung metastasis of tumor cells
